From ChEMBL document CHEMBL1136903, “Spiroimidazolidinone NPC1L1 inhibitors. 1: Discovery by 3D-similarity-based virtual screening” (Bioorg Med Chem Lett, 2009)
pIC50: −log10 of the molar value.

Key:
[1] = target: NPC1-like intracellular cholesterol transporter 1 (Rattus norvegicus, UniProt Q6T3U3); experiment: Displacement of [35S](2S,3S,4S,5R,6S)-6-(4-((2S,3R)-3-((S)-3-(4-fluorophenyl)-3-hydroxypropyl)-1-(4-(3-(methylsulfonamido)prop-1-ynyl)phenyl)-4-oxoazetidin-2-yl)phenoxy)-3,4,5-trihydroxytetrahydro-2H-pyran-2-carboxylic acid from NPC1L1 in rat enterocyte brush border membrane
[2] = Displacement of [35S](2S,3S,4S,5R,6S)-6-(4-((2S,3R)-3-((S)-3-(4-fluorophenyl)-3-hydroxypropyl)-1-(4-(3-(methylsulfonamido)prop-1-ynyl)phenyl)-4-oxoazetidin-2-yl)phenoxy)-3,4,5-trihydroxytetrahydro-2H-pyran-2-carboxylic acid from NPC1L1 in pig enterocyte brush border membrane; design: species or system Sus scrofa
[3] = target: T1, Niemann-Pick C1-like 1 protein (Canis lupus familiaris, UniProt A0MJA4); experiment: Displacement of [35S](2S,3S,4S,5R,6S)-6-(4-((2S,3R)-3-((S)-3-(4-fluorophenyl)-3-hydroxypropyl)-1-(4-(3-(methylsulfonamido)prop-1-ynyl)phenyl)-4-oxoazetidin-2-yl)phenoxy)-3,4,5-trihydroxytetrahydro-2H-pyran-2-carboxylic acid from NPC1L1 in dog enterocyte brush border membrane
T1 sequence (A0MJA4 whole entry): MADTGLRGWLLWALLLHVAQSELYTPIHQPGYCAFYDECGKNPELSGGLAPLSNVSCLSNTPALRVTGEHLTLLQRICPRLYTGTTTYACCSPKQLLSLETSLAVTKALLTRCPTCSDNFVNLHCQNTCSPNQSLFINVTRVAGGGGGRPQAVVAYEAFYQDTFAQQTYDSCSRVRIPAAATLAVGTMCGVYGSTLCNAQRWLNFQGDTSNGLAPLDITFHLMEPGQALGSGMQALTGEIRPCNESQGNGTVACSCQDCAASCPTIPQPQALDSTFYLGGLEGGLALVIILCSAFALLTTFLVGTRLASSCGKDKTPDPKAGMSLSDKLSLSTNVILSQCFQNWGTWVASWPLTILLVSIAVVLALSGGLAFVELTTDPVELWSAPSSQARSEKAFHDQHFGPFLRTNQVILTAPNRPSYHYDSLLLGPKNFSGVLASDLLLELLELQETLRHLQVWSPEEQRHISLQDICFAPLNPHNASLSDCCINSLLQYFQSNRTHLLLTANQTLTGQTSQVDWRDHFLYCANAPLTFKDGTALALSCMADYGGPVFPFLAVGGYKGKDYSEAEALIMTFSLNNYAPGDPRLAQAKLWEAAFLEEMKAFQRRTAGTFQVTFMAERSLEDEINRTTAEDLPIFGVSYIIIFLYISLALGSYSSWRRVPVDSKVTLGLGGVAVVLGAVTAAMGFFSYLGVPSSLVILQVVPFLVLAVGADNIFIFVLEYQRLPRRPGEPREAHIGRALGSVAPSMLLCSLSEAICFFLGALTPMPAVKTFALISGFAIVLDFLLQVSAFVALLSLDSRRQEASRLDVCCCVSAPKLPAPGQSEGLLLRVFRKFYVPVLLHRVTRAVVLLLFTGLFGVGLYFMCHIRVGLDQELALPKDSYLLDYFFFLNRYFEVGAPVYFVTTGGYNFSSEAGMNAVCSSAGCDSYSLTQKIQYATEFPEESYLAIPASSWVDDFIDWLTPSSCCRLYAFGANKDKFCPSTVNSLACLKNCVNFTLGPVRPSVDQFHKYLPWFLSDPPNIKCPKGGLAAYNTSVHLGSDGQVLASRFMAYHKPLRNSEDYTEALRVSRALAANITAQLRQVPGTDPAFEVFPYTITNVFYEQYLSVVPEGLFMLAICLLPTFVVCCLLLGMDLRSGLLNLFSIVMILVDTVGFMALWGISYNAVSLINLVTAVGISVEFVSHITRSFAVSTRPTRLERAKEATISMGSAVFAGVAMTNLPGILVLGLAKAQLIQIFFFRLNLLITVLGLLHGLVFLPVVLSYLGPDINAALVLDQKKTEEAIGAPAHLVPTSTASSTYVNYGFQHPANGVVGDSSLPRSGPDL

Sequence of NPC1-like intracellular cholesterol transporter 1 (Q6T3U3 21-1331 limits assumed): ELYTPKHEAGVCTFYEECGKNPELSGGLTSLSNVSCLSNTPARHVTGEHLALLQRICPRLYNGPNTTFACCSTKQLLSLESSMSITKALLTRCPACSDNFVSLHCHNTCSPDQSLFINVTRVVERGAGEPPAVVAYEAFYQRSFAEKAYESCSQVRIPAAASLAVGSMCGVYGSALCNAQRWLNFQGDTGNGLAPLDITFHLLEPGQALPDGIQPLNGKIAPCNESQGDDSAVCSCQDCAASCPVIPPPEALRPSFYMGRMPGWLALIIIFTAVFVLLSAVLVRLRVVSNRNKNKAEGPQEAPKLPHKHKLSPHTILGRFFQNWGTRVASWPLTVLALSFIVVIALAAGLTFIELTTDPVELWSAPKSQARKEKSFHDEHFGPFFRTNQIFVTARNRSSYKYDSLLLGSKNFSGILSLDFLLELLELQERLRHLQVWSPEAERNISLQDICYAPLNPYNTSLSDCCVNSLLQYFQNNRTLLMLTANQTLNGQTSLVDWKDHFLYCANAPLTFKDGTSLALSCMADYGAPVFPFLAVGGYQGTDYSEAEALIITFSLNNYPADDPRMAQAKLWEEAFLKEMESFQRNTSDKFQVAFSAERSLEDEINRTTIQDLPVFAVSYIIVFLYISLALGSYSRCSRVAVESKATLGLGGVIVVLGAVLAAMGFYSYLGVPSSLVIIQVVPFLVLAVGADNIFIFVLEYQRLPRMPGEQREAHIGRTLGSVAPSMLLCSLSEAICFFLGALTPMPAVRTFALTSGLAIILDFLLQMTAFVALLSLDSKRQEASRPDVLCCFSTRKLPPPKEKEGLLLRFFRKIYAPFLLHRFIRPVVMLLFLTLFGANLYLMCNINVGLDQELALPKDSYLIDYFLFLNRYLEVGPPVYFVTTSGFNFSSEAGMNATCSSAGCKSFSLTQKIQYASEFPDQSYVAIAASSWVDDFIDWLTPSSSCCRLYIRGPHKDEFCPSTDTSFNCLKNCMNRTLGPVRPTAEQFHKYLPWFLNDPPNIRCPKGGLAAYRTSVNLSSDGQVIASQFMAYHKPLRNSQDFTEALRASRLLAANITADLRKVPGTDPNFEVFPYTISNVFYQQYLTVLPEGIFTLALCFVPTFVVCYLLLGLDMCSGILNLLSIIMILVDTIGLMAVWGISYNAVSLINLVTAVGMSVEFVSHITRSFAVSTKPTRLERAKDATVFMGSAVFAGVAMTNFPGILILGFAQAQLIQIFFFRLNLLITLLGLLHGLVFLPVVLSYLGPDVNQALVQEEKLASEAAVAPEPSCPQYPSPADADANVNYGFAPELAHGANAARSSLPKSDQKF

pIC50 [1]	pIC50 [2]	pIC50 [3]	Compound
6.24	6.49	7.22	O=C(O)[C@H]1O[C@@H](Oc2ccc([C@@H]3[C@@H](CC[C@H](O)c4ccc(F)cc4)C(=O)N3c3ccc(F)cc3)cc2)[C@H](O)[C@@H](O)[C@@H]1O
4.47	< 3.30	< 3.30	O=C([C@@H]1C[C@@H](c2ccccc2)CN1C(=O)c1ccccc1)N1CCC2(C=Cc3ccccc32)CC1
3.96	< 3.30	3.77	CC(C)(C)c1ccc(C(=O)N2CCC3(CC2)C(=O)N(CC(=O)N2CCCCC2)CN3c2ccccc2)cc1
7.80	7.89	8.10	CS(=O)(=O)NCC#CN1C(=O)[C@H](CC[C@H](O)c2ccc(F)cc2)[C@H]1c1ccc(O[C@@H]2O[C@H](C(=O)O)[C@@H](O)[C@H](O)[C@H]2O)cc1
